According to ChEMBL document CHEMBL5137026, “Novel deuterated Mnk1/2 protein degrader VNLG-152R analogs: Synthesis, In vitro Anti-TNBC activities and pharmacokinetics in mice” (Eur J Med Chem, 2022):

How the values were obtained:
MDA-MB-468 [1] = assay: Induction of apoptosis in human MDA-MB-468 cells assessed as downregulation of […] measured after 24 hrs by SDS PAGE based Western blotting analysis; format: functional, cell-based
MDA-MB-231 [2] = assay: Induction of apoptosis in human MDA-MB-231 cells assessed as downregulation of […] measured after 24 hrs by SDS PAGE based Western blotting analysis; format: functional, cell-based
MDA-MB-231 [3] = assay: Downregulation of PeIF4E in human MDA-MB-231 cells measured after 24 hrs by SDS PAGE based Western blotting analysis; format: functional, cell-based
MDA-MB-468 [4] = assay: Induction of apoptosis in human MDA-MB-468 cells assessed as upregulation of Bax measured after 24 hrs by SDS PAGE based Western blotting analysis; format: functional, cell-based
MDA-MB-231 [5] = assay: Induction of apoptosis in human MDA-MB-231 cells assessed as upregulation of Bax measured after 24 hrs by SDS PAGE based Western blotting analysis; format: functional, cell-based
MDA-MB-231 [6] = assay: Induction of apoptosis in human MDA-MB-231 cells assessed as downregulation of Bcl-2 measured after 24 hrs by SDS PAGE based Western blotting analysis; format: functional, cell-based
MDA-MB-231 [7] = assay: Downregulation of Mnk1 in human MDA-MB-231 cells measured after 24 hrs by SDS PAGE based Western blotting analysis; format: functional, cell-based
MDA-MB-468 [8] = assay: Induction of apoptosis in human MDA-MB-468 cells assessed as downregulation of Bcl-2 measured after 24 hrs by SDS PAGE based Western blotting analysis; format: functional, cell-based
[9] = Half life in po dosed CD-1 mouse by LC/MS/MS analysis; format: ADME, organism-based; settings: in vivo
MDA-MB-468 [10] = assay: Antiproliferative activity against human MDA-MB-468 cells measured after 6 days by MTT assay; format: functional; settings: MDA-MB-468, 144 h, time 6 day
[11] = Cmax in po dosed CD-1 mouse by LC/MS/MS analysis; format: ADME, organism-based; design: route po; settings: in vivo
[12] = AUC in po dosed CD-1 mouse by LC/MS/MS analysis; format: ADME, organism-based; design: route po; settings: in vivo
[13] = MRT in po dosed CD-1 mouse by LC/MS/MS analysis; format: ADME, organism-based; settings: in vivo
MDA-MB-231 [14] = assay: Antiproliferative activity against human MDA-MB-231 cells measured after 6 days by MTT assay; format: functional; settings: MDA-MB-231, 144 h, time 6 day
[15] = Tmax in po dosed CD-1 mouse by LC/MS/MS analysis; format: ADME, organism-based; settings: in vivo
MDA-MB-231 [16] = assay: Antiproliferative activity against human MDA-MB-231 cells measured after 24 hrs by MTT assay; format: functional
[17] = dose 5-20 µM, DDE = dose-dependent effect
[18] = dose 5-20 µM, DDE = dose-dependent effect, tested as the 2H-labelled form
[19] = dose 5-20 µM, tested as the 2H-labelled form, DDE = dose-dependent effect

For `CC1=C(/C=C/C(C)=C/C=C/C(C)=C/C(=O)Nc2ccc(F)cc2)C(C)(C)CCC1n1ccnc1` (racemic; form 1) [listing 1 of 2 here], the Activity (MDA-MB-468 [1]; [17]) was “Dde”, the Activity (MDA-MB-231 [2]; [17]) was “Dde” and the Activity (MDA-MB-231 [3]; [17]) was “Dde”. For the same molecule, the Activity (MDA-MB-468 [4]; [17]) was “Dde”, the Activity (MDA-MB-231 [5]; [17]) was “Dde” and the Activity (MDA-MB-231 [6]; [17]) was “Dde”. For the same molecule, the Activity (MDA-MB-231 [7]; [17]) was “Dde” and the Activity (MDA-MB-468 [8]; [17]) was “Dde”.
For `CC1=C(/C=C/C(C)=C/C=C/C(C)=C/C(=O)Nc2ccc(F)cc2)C(C)(C)CCC1n1ccnc1` (racemic; form 2), the Activity (MDA-MB-468 [1]; [18]) was “Dde”, the Activity (MDA-MB-231 [2]; [19]) was “Dde” and the Activity (MDA-MB-231 [3]; [19]) was “Dde”. The Activity (MDA-MB-468 [4]; [19]) was “Dde”, the Activity (MDA-MB-231 [5]; [19]) was “Dde” and the Activity (MDA-MB-231 [6]; [18]) was “Dde”. The Activity (MDA-MB-231 [7]; [19]) was “Dde” and the Activity (MDA-MB-468 [8]; [19]) was “Dde”.
With `CC1=C(/C=C/C(C)=C/C=C/C(C)=C/C(=O)Nc2ccc(F)cc2)C(C)(C)CCC1n1ccnc1` (racemic; form 3) the Activity (MDA-MB-468 [1]; [19]) was “Dde”, the Activity (MDA-MB-231 [2]; [18]) was “Dde” and the Activity (MDA-MB-231 [3]; [18]) was “Dde”. For the same molecule, the Activity (MDA-MB-468 [4]; [19]) was “Dde”, the Activity (MDA-MB-231 [5]; [18]) was “Dde” and the Activity (MDA-MB-231 [6]; [18]) was “Dde”. For the same molecule, the Activity (MDA-MB-231 [7]; [18]) was “Dde” and the Activity (MDA-MB-468 [8]; [19]) was “Dde”.
`[2H]c1nc([2H])n(C2([2H])CCC(C)(C)C(/C=C/C(C)=C/C=C/C(C)=C/C(=O)Nc3c([2H])c([2H])c(F)c([2H])c3[2H])=C2C)c1[2H]` (racemic) showed a half-life [9] of 10.3 h, a GI50 (MDA-MB-468 [10]) of 290 nM and a Cmax [11] of 1620 ng/mL. For the same molecule, the AUC [12] was 22600 ng·h/mL, the MRT [13] was 8.92 h and the GI50 (MDA-MB-231 [14]) was 710 nM. It also gave a Tmax [15] of 2.67 h.
For `CC1=C(/C=C/C(C)=C/C=C/C(C)=C/C(=O)Nc2ccc(F)cc2)C(C)(C)CCC1n1ccnc1` (racemic; form 1) [listing 2 of 2 here], the half-life [9] was 3.61 h, the GI50 (MDA-MB-468 [10]) was 400 nM and the Cmax [11] was 4650 ng/mL. For the same molecule, the AUC [12] was 22800 ng·h/mL, the MRT [13] was 3.02 h and the GI50 (MDA-MB-231 [14]) was 830 nM. The Tmax [15] was 0.83 h.
Molecule `[2H]C1(n2ccnc2)CCC(C)(C)C(/C=C/C(C)=C/C=C/C(C)=C/C(=O)Nc2ccc(F)cc2)=C1C` (racemic) has a half-life [9] of 12.1 h, a GI50 (MDA-MB-468 [10]) of 190 nM and a Cmax [11] of 1030 ng/mL. The AUC [12] was 17600 ng·h/mL, the MRT [13] was 9.06 h and the GI50 (MDA-MB-231 [14]) was 860 nM. It also gave a Tmax [15] of 2.5 h.
With `[2H]c1nc([2H])n(C2CCC(C)(C)C(/C=C/C(C)=C/C=C/C(C)=C/C(=O)Nc3c([2H])c([2H])c(F)c([2H])c3[2H])=C2C)c1[2H]` (racemic) the half-life [9] was 4.34 h, the GI50 (MDA-MB-468 [10]) was 250 nM and the Cmax [11] was 455 ng/mL. It also gave an AUC [12] of 2060 ng·h/mL, an MRT [13] of 2.89 h and a GI50 (MDA-MB-231 [14]) of 620 nM. The Tmax [15] was 0.83 h.
`[2H]c1nc([2H])n(C2CCC(C)(C)C(/C=C/C(C)=C/C=C/C(C)=C/C(=O)Nc3ccc(F)cc3)=C2C)c1[2H]` (racemic) gave a half-life [9] of 8.39 h, a GI50 (MDA-MB-468 [10]) of 280 nM and a Cmax [11] of 151 ng/mL. For the same molecule, the AUC [12] was 1740 ng·h/mL, the MRT [13] was 3.57 h and the GI50 (MDA-MB-231 [14]) was 710 nM. It also gave a Tmax [15] of 1.33 h.
For `CC(=O)O[C@H]1C(=O)[C@@]2(C)[C@H]([C@H](OC(=O)c3ccccc3)[C@]3(O)C[C@H](OC(=O)[C@H](O)[C@@H](NC(=O)c4ccccc4)c4ccccc4)C(C)=C1C3(C)C)[C@]1(OC(C)=O)CO[C@@H]1C[C@@H]2O` [PACLITAXEL], the GI50 (MDA-MB-468 [10]) was 100 nM, the GI50 (MDA-MB-231 [14]) was 220 nM and the GI50 (MDA-MB-231 [16]) was 300 nM.
In the case of `CC1=C(/C=C/C(C)=C/C=C/C(C)=C/C(=O)Nc2ccc(F)cc2)C(C)(C)CCC1n1ccnc1` (racemic; form 7), the Activity (MDA-MB-468 [1]; [18]) is reported as “Dde”, the Activity (MDA-MB-231 [2]; [19]) is reported as “Dde” and the Activity (MDA-MB-231 [3]; [19]) is reported as “Dde”. The Activity (MDA-MB-468 [4]; [18]) was “Dde”, the Activity (MDA-MB-231 [5]; [19]) was “Dde” and the Activity (MDA-MB-231 [6]; [18]) was “Dde”. The Activity (MDA-MB-231 [7]; [19]) was “Dde” and the Activity (MDA-MB-468 [8]; [18]) was “Dde”.
`[2H]c1c([2H])c(NC(=O)/C=C(C)/C=C/C=C(C)/C=C/C2=C(C)C(n3ccnc3)CCC2(C)C)c([2H])c([2H])c1F` (racemic) gave a half-life [9] of 4.9 h, a GI50 (MDA-MB-468 [10]) of 270 nM and a Cmax [11] of 273 ng/mL. For the same molecule, the AUC [12] was 1730 ng·h/mL, the MRT [13] was 4.63 h and the GI50 (MDA-MB-231 [14]) was 770 nM. For the same molecule, the Tmax [15] was 0.83 h.
In the case of `CC1=C(/C=C/C(C)=C/C=C/C(C)=C/C(=O)Nc2ccc(F)cc2)C(C)(C)CCC1n1ccnc1` (racemic; form 6), the Activity (MDA-MB-468 [1]; [18]) is reported as “Dde”, the Activity (MDA-MB-231 [2]; [19]) is reported as “Dde” and the Activity (MDA-MB-231 [3]; [19]) is reported as “Dde”. For the same molecule, the Activity (MDA-MB-468 [4]; [19]) was “Dde”, the Activity (MDA-MB-231 [5]; [18]) was “Dde” and the Activity (MDA-MB-231 [6]; [19]) was “Dde”. For the same molecule, the Activity (MDA-MB-231 [7]; [19]) was “Dde” and the Activity (MDA-MB-468 [8]; [19]) was “Dde”.
Molecule `[2H]c1nc([2H])n(C2([2H])CCC(C)(C)C(/C=C/C(C)=C/C=C/C(C)=C/C(=O)Nc3ccc(F)cc3)=C2C)c1[2H]` (racemic) has a half-life [9] of 4.27 h, a GI50 (MDA-MB-468 [10]) of 270 nM and a Cmax [11] of 501 ng/mL. For the same molecule, the AUC [12] was 2700 ng·h/mL, the MRT [13] was 5.49 h and the GI50 (MDA-MB-231 [14]) was 830 nM. The Tmax [15] was 0.67 h.
With `CC1=C(/C=C/C(C)=C/C=C/C(C)=C/C(=O)Nc2ccc(F)cc2)C(C)(C)CCC1n1ccnc1` (racemic; form 5) the Activity (MDA-MB-468 [1]; [19]) was “Dde”, the Activity (MDA-MB-231 [2]; [19]) was “Dde” and the Activity (MDA-MB-231 [3]; [19]) was “Dde”. The Activity (MDA-MB-468 [4]; [18]) was “Dde”, the Activity (MDA-MB-231 [5]; [19]) was “Dde” and the Activity (MDA-MB-231 [6]; [19]) was “Dde”. For the same molecule, the Activity (MDA-MB-231 [7]; [19]) was “Dde” and the Activity (MDA-MB-468 [8]; [18]) was “Dde”.
`[2H]c1c([2H])c(NC(=O)/C=C(C)/C=C/C=C(C)/C=C/C2=C(C)C([2H])(n3ccnc3)CCC2(C)C)c([2H])c([2H])c1F` (racemic) gave a half-life [9] of 10.2 h, a GI50 (MDA-MB-468 [10]) of 270 nM and a Cmax [11] of 1360 ng/mL. The AUC [12] was 15500 ng·h/mL, the MRT [13] was 8.48 h and the GI50 (MDA-MB-231 [14]) was 620 nM. For the same molecule, the Tmax [15] was 0.75 h.
In the case of `CC1=C(/C=C/C(C)=C/C=C/C(C)=C/C(=O)Nc2ccc(F)cc2)C(C)(C)CCC1n1ccnc1` (racemic; form 8), the Activity (MDA-MB-468 [1]; [18]) is reported as “Dde”, the Activity (MDA-MB-231 [2]; [18]) is reported as “Dde” and the Activity (MDA-MB-231 [3]; [19]) is reported as “Dde”. For the same molecule, the Activity (MDA-MB-468 [4]; [18]) was “Dde”, the Activity (MDA-MB-231 [5]; [19]) was “Dde” and the Activity (MDA-MB-231 [6]; [18]) was “Dde”. For the same molecule, the Activity (MDA-MB-231 [7]; [18]) was “Dde” and the Activity (MDA-MB-468 [8]; [19]) was “Dde”.
In the case of `CC1=C(/C=C/C(C)=C/C=C/C(C)=C/C(=O)Nc2ccc(F)cc2)C(C)(C)CCC1n1ccnc1` (racemic; form 4), the Activity (MDA-MB-468 [1]; [19]) is reported as “Dde”, the Activity (MDA-MB-231 [2]; [18]) is reported as “Dde” and the Activity (MDA-MB-231 [3]; [18]) is reported as “Dde”. The Activity (MDA-MB-468 [4]; [18]) was “Dde”, the Activity (MDA-MB-231 [5]; [19]) was “Dde” and the Activity (MDA-MB-231 [6]; [18]) was “Dde”. For the same molecule, the Activity (MDA-MB-231 [7]; [18]) was “Dde” and the Activity (MDA-MB-468 [8]; [19]) was “Dde”.
